Assay results: patent publication US20050004070A1, “Anti-infectious carbohydrates” (priority 2001, published 2005)
“Also recorded” adds a separate entry of the source.

Tested on: listeria bacteria, in particular Listeria monocytogenes
Experiment: Invasion and infection of mammal cells by listeria bacteria
Format: cell-based
Settings: no method or numbers given

Molecule | inhibitory action against listeria bacteria (invasion and infection of mammal cells)
lacto-N-fucopentaose I [LNFP I] | particularly strong inhibitory effect; also recorded: strong, yet dose-dependant inhibitory action
LNFP III | did not shown any such action
CC(=O)N[C@H]1[C@H](O[C@H]2[C@@H](O)[C@@H](CO)O[C@@H](O[C@@H]([C@H](O)[C@@H](O)C=O)[C@H](O)CO)[C@@H]2O)O[C@H](CO)[C@@H](O[C@@H]2O[C@@H](C)[C@@H](O)[C@@H](O)[C@@H]2O)[C@@H]1O[C@@H]1O[C@H](CO)[C@H](O)[C@H](O)[C@H]1O [LNFP II] | did not shown any such action
